Test results taken from ChEMBL document CHEMBL1135051, “N-arylalkylpiperidines as high-affinity sigma-1 and sigma-2 receptor ligands: phenylpropylamines as potential leads for selective sigma-2 agents” (Bioorg Med Chem Lett, 2002).

Assays:
[1] = molecular target: Sigma 2 receptor; experiment: Binding affinity for sigma-2 receptor by displacing [3H]DTG in presence of dextrallorphan; parameters: species or system Rattus norvegicus
[2] = molecular target: Sigma non-opioid intracellular receptor 1 (Rattus norvegicus, UniProt Q9R0C9); experiment: Binding affinity for sigma-1 receptor by displacing [3H]-(+) pentazocine
Sequence of Sigma non-opioid intracellular receptor 1 (Q9R0C9 whole entry): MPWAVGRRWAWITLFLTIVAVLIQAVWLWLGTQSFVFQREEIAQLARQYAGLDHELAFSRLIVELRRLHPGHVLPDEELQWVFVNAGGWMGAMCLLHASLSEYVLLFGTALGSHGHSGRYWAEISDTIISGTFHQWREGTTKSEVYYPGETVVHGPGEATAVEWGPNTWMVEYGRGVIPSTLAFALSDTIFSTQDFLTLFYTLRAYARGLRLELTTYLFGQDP

| SMILES | Ki [1] [nM] | Ki [2] [nM] |
| --- | --- | --- |
| c1ccc(CCN2CCN(c3ccccn3)CC2)cc1 | 119 | 326 |
| CC1CCCN(CCc2ccccc2)C1 (stereo not given) | 84.4 | 4.15 |
| c1ccc(CCCN2CCN(c3ccccn3)CC2)cc1 | 4.91 | 82.9 |
| c1ccc(CCCN2CCc3ccccc3C2)cc1 | 14.2 | 13.9 |
| c1ccc(CCN2CCc3ccccc3C2)cc1 | 57.3 | 5.9 |
| CC1CCCN(CCCc2ccccc2)C1 (stereo not given) | 6.61 | 5.25 |
| c1ccc(CCCN2CCCCC2)cc1 | 25 | 143 |
| CC1CCN(CCc2ccccc2)CC1 | 33.3 | 20.9 |
| CC1CCN(CCCc2ccccc2)CC1 | 12.1 | 3.35 |
| c1ccc(CCN2CCCCC2)cc1 [1-PHENETHYLPIPERIDINE] | 112 | 88.5 |
